From publication doi:10.1101/2020.06.11.145995v1 (biorxiv, 2020)
Like-named read-outs stand apart in the source and are kept apart here.

Key:
Assay in all cases: biochemical
[1] = target: TXK (Homo sapiens, UniProt P42681)
[2] = target: PIK3CA(E542K) (Homo sapiens, UniProt P42336, E542K)
[3] = target: PRKCH (Homo sapiens, UniProt P24723)
[4] = target: SYK (Homo sapiens, UniProt P43405)
[5] = target: YANK1 (Homo sapiens, UniProt Q8WU08)
[6] = target: TAOK1 (Homo sapiens, UniProt Q7L7X3)
[7] = target: PAK1 (Homo sapiens, UniProt Q13153)
[8] = target: NEK3 (Homo sapiens, UniProt P51956)
[9] = target: SRMS (Homo sapiens, UniProt Q9H3Y6)
[10] = target: PDGFRA (Homo sapiens, UniProt P16234)
[11] = target: RET(M918T) (Homo sapiens, UniProt P07949, M918T)
[12] = target: RET(V804M) (Homo sapiens, UniProt P07949, V804M)
[13] = target: PRKCQ (Homo sapiens, UniProt Q04759)
[14] = target: PIK3CA(C420R) (Homo sapiens, UniProt P42336, C420R)
[15] = target: RAF1 (Homo sapiens, UniProt P04049)
[16] = target: TAOK3 (Homo sapiens, UniProt Q9H2K8)
[17] = target: TGFBR1 (Homo sapiens, UniProt P36897)
[18] = target: TIE2 (Homo sapiens, UniProt Q02763)
[19] = target: TYK2 (Homo sapiens, UniProt P29597)
[20] = target: SGK3 (Homo sapiens, UniProt Q96BR1)
[21] = target: ROS1 (Homo sapiens, UniProt P08922)
[22] = target: RIPK1 (Homo sapiens, UniProt Q13546)
[23] = target: SRPK3 (Homo sapiens, UniProt Q9UPE1)
[24] = target: NEK11 (Homo sapiens, UniProt Q8NG66)
[25] = target: SBK1 (Homo sapiens, UniProt Q52WX2)
[26] = target: PCTK2 (Homo sapiens, UniProt Q00537)
[27] = target: ULK3 (Homo sapiens, UniProt Q6PHR2)
[28] = target: PRP4 (Homo sapiens, UniProt Q13523)
[29] = target: NEK4 (Homo sapiens, UniProt P51957)
[30] = read-out: CPT-1-70-1 (1μM) % control
[31] = read-out: HYJ-2-002-1 (1μM) % control

TYK2, sequence (P29597 whole entry): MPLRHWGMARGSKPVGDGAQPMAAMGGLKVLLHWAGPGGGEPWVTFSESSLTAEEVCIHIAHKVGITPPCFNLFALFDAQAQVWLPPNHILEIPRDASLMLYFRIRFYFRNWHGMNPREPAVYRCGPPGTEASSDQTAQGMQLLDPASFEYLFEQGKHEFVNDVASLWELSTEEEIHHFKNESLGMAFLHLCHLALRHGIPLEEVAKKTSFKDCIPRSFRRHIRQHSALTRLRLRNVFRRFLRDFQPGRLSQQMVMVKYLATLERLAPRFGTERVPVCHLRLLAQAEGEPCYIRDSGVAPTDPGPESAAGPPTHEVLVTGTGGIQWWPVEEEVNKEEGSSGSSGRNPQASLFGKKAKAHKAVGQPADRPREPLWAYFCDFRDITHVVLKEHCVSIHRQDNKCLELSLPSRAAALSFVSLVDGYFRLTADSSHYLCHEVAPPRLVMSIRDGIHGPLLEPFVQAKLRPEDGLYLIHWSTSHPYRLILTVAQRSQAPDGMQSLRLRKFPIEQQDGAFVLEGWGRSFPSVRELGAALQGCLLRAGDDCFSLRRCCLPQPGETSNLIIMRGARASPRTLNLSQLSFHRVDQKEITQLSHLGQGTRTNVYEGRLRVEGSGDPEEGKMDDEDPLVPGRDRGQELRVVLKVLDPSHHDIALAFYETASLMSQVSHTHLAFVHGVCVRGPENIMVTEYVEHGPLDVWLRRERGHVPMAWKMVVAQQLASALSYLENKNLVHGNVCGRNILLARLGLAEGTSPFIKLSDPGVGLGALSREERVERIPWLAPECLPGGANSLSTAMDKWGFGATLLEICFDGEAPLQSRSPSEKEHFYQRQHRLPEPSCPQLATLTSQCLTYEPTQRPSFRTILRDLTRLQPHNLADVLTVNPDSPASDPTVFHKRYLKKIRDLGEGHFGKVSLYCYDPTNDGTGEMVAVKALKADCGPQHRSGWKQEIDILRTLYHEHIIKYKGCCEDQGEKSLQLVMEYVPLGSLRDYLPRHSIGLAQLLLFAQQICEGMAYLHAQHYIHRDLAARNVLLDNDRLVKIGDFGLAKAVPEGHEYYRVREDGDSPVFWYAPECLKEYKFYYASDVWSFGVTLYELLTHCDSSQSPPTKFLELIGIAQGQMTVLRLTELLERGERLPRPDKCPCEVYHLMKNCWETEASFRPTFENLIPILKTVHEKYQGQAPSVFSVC
RET(M918T), sequence (P07949 whole entry M918T): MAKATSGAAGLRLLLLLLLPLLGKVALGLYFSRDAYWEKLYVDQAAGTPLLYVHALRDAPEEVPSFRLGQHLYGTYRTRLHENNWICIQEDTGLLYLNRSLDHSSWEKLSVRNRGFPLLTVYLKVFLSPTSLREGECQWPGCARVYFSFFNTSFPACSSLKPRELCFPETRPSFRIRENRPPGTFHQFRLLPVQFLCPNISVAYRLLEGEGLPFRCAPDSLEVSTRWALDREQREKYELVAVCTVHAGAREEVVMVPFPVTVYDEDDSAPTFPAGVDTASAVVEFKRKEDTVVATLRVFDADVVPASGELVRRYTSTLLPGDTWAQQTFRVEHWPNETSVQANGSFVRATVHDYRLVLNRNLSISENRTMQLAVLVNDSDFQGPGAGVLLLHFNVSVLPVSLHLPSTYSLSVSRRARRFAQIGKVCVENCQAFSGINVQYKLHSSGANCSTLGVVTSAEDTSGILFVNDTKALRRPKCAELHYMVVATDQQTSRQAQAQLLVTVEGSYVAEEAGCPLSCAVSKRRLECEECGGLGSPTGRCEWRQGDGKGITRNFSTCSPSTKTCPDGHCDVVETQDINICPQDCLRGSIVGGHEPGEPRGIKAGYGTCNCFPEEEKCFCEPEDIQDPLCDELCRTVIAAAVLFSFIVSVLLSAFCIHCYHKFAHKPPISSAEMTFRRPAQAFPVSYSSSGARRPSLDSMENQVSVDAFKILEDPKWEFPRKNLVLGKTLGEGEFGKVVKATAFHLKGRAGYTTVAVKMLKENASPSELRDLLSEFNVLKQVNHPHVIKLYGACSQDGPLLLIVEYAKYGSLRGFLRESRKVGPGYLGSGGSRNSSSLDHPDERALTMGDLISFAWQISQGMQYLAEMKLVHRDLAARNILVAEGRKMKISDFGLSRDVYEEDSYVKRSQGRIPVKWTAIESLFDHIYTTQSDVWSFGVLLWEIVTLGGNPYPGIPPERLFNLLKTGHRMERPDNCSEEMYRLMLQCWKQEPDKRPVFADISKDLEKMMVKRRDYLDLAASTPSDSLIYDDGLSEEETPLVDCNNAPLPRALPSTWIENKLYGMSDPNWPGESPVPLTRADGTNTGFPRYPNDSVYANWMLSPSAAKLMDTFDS
PIK3CA(C420R), sequence (P42336 whole entry C420R): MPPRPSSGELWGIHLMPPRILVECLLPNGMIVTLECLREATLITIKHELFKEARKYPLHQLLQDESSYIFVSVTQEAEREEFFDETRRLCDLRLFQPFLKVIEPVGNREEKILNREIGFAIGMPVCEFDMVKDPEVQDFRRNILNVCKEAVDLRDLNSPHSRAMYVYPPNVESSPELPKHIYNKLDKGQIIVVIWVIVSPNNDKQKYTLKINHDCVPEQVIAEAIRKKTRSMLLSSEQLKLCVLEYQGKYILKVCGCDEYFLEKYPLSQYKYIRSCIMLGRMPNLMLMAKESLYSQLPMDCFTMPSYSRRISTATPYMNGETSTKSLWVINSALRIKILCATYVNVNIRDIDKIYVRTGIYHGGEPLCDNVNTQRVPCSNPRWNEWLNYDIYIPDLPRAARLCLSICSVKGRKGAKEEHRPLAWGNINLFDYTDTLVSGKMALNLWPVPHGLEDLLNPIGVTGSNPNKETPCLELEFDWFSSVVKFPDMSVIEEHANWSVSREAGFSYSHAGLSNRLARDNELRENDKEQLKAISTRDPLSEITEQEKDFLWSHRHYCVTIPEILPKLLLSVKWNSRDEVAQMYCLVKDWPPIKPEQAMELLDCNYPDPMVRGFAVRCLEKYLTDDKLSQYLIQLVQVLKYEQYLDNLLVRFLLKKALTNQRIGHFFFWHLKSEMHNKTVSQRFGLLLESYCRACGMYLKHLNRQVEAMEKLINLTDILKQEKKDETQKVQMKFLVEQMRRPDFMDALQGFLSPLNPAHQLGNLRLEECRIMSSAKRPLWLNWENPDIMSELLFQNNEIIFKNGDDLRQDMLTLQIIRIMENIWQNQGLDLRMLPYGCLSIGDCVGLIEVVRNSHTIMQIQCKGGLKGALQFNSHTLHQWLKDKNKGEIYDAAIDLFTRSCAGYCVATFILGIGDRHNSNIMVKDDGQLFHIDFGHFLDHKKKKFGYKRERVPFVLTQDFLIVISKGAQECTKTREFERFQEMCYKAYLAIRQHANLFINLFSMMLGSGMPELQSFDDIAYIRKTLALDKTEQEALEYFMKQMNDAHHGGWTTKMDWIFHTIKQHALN
YANK1, sequence (Q8WU08 whole entry): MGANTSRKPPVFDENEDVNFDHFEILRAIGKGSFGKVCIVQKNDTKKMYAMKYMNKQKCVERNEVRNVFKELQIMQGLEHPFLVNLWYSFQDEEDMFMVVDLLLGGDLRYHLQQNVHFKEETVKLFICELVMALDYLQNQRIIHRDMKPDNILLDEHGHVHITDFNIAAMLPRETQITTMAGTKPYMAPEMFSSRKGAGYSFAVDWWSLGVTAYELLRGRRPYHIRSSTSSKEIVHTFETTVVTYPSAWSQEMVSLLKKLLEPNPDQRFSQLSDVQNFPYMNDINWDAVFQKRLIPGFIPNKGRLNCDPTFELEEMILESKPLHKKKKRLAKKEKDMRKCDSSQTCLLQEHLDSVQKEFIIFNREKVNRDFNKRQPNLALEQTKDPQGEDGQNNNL
SRMS, sequence (Q9H3Y6 whole entry): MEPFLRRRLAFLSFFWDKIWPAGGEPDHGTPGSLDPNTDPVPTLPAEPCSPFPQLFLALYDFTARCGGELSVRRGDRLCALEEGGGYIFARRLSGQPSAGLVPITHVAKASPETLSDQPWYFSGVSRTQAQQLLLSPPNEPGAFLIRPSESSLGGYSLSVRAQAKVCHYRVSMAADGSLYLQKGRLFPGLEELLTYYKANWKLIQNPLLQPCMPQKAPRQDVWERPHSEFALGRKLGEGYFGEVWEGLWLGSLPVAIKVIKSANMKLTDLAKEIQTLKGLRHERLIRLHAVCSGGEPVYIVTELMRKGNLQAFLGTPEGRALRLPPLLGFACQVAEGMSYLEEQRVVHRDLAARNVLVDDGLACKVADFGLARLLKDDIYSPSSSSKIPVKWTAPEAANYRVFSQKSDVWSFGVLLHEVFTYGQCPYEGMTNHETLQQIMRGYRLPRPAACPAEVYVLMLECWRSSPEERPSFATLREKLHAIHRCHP
NEK4, sequence (P51957 whole entry): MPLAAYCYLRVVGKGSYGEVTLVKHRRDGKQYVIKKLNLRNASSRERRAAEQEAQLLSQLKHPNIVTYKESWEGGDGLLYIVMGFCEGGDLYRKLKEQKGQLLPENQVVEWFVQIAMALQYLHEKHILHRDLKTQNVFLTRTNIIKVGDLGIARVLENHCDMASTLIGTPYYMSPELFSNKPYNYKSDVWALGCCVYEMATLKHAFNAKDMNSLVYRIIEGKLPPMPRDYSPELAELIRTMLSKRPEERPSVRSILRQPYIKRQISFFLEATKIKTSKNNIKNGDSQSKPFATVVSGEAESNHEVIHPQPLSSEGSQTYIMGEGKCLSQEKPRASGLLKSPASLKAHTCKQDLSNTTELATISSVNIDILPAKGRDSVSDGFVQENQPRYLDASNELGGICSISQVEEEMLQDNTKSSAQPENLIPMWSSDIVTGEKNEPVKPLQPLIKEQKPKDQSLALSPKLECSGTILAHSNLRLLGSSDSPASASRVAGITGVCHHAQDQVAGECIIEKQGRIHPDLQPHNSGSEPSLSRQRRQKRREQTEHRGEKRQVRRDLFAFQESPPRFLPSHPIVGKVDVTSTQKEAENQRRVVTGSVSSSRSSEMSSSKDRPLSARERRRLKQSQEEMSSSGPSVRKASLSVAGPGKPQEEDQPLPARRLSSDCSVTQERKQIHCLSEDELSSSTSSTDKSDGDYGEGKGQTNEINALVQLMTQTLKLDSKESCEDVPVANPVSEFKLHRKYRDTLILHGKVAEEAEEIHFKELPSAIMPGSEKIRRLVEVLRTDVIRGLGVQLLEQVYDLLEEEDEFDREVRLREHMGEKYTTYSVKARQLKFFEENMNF

## CN1CCN(c2ccc(Nc3nc(Oc4ccc(NC(=O)CCl)cc4)c4cc[nH]c4n3)cc2)CC1 [CPT1-70-1]
[1]; [30]
  remaining activity at 1 µM: 4.6%
[2]; [30]
  remaining activity at 1 µM: 100%
[3]; [30]
  remaining activity at 1 µM: 100%
[4]; [30]
  remaining activity at 1 µM: 63%
[5]; [30]
  remaining activity at 1 µM: 100%
[6]; [30]
  remaining activity at 1 µM: 96%
[7]; [30]
  remaining activity at 1 µM: 64%
[8]; [30]
  remaining activity at 1 µM: 68%
[9]; [30]
  remaining activity at 1 µM: 100%
[10]; [30]
  remaining activity at 1 µM: 64%
[11]; [30]
  remaining activity at 1 µM: 13%
[12]; [30]
  remaining activity at 1 µM: 2.2%
[13]; [30]
  remaining activity at 1 µM: 100%
[14]; [30]
  remaining activity at 1 µM: 100%
[15]; [30]
  remaining activity at 1 µM: 86%
[16]; [30]
  remaining activity at 1 µM: 71%
[17]; [30]
  remaining activity at 1 µM: 100%
[18]; [30]
  remaining activity at 1 µM: 100%
[19]; read-out: CPT-1-70-1 (1μM) % control, JH1 domain-catalytic
  remaining activity at 1 µM: 7.4%
[19]; read-out: CPT-1-70-1 (1μM) % control, JH2 domain-pseudokinase
  remaining activity at 1 µM: 68%
[20]; [30]
  remaining activity at 1 µM: 74%
[21]; [30]
  remaining activity at 1 µM: 100%
[22]; [30]
  remaining activity at 1 µM: 0.15%
[23]; [30]
  remaining activity at 1 µM: 100%
[24]; [30]
  remaining activity at 1 µM: 95%
[25]; [30]
  remaining activity at 1 µM: 10%
[26]; [30]
  remaining activity at 1 µM: 100%
[27]; [30]
  remaining activity at 1 µM: 19%
[28]; [30]
  remaining activity at 1 µM: 90%
[29]; [30]
  remaining activity at 1 µM: 100%

## CCN1CCN(Cc2ccc(NC(=O)c3ccc(C)c(CCc4cnc5[nH]ccc5c4OC)c3)cc2C(F)(F)F)CC1 [HYJ-2-002-1]
[1]; [31]
  remaining activity at 1 µM: 2.1%
[2]; [31]
  remaining activity at 1 µM: 100%
[3]; [31]
  remaining activity at 1 µM: 100%
[4]; [31]
  remaining activity at 1 µM: 18%
[5]; [31]
  remaining activity at 1 µM: 100%
[6]; [31]
  remaining activity at 1 µM: 34%
[7]; [31]
  remaining activity at 1 µM: 100%
[8]; [31]
  remaining activity at 1 µM: 100%
[9]; [31]
  remaining activity at 1 µM: 8.4%
[10]; [31]
  remaining activity at 1 µM: 0.65%
[11]; [31]
  remaining activity at 1 µM: 0.95%
[12]; [31]
  remaining activity at 1 µM: 1%
[13]; [31]
  remaining activity at 1 µM: 82%
[14]; [31]
  remaining activity at 1 µM: 100%
[15]; [31]
  remaining activity at 1 µM: 8.9%
[16]; [31]
  remaining activity at 1 µM: 0.45%
[17]; [31]
  remaining activity at 1 µM: 100%
[18]; [31]
  remaining activity at 1 µM: 0.15%
[19]; read-out: HYJ-2-002-1 (1μM) % control, JH1 domain-catalytic
  remaining activity at 1 µM: 53%
[19]; read-out: HYJ-2-002-1 (1μM) % control, JH2 domain-pseudokinase
  remaining activity at 1 µM: 100%
[20]; [31]
  remaining activity at 1 µM: 100%
[21]; [31]
  remaining activity at 1 µM: 100%
[22]; [31]
  remaining activity at 1 µM: 8.2%
[23]; [31]
  remaining activity at 1 µM: 90%
[24]; [31]
  remaining activity at 1 µM: 37%
[25]; [31]
  remaining activity at 1 µM: 93%
[26]; [31]
  remaining activity at 1 µM: 100%
[27]; [31]
  remaining activity at 1 µM: 53%
[28]; [31]
  remaining activity at 1 µM: 100%
[29]; [31]
  remaining activity at 1 µM: 57%
